PMC6934184, “Selective DNA-PKcs inhibition extends the therapeutic index of localized radiotherapy and chemotherapy” (The Journal of Clinical Investigation, 2019)

Target: T1, NEK2 (Homo sapiens, UniProt P51955)
T1 construct: purchased Thermo Fisher Scientific (Life Technologies) SelectScreen
Assay: SelectScreen Z'LYTE
Assay type: biochemical
Summary of the method: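 Percent values come from Thermo SelectScreen profiling of NU5455, combining activity and binding assays. CSF1R was run in Z'LYTE format at Km app ATP, and CAMK1 in Adapta format with ATP listed at 10.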

T1 sequence (P51955 whole entry): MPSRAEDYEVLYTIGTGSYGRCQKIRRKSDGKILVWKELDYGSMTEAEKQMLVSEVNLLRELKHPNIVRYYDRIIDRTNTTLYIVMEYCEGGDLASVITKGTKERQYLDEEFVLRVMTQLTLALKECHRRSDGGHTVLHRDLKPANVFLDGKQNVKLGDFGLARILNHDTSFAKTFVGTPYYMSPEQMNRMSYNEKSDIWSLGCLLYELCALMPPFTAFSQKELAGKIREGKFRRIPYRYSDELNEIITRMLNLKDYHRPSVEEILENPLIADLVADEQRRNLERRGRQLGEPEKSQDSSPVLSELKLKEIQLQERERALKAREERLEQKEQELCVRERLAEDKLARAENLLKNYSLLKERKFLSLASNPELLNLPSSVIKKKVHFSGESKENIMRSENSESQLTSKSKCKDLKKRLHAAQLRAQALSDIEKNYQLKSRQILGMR

CN(C(=O)CN1CCOCC1)c1ccc2sc3c(-c4cccc5c(=O)cc(N6CC7CCC(C6)O7)oc45)cccc3c2c1 [NU5455]
inhibition at 1 µM: 17.8%
